Measurements reported in patent US20210060033A1, “ORALLY ADMINISTERED COMBINATIONS OF BETA-LACTAM ANTIBIOTICS AND AVIBACTAM DERIVATIVES FOR TREATING BACTERIAL INFECTIONS” (priority 2019, published 2021).
Counter-ions that a name gives are not always drawn.

How the values were obtained:
[1] = test system: pooled Enterobacteriaceae isolates; assay: Pharmacokinetic-pharmacodynamic analyses (Hill-type models) of the 400 mg ceftibuten dose-ranging studies; assay type: cell-based; details: 400 mg of ceftibuten, 24 hours
Method: Data from the avibactam dose-ranging studies, in combination with 400 mg q8h of ceftibuten, were evaluated using Hill models and non-linear least squares regression. All data was weighted using the inverse of the estimated measurement variance. […] The relationships between change in log10 CFU/mL and percent time above avibactam concentration thresholds (Ct) ranging from 0.125 mg/L to 2 mg/L were also evaluated.

[2] = Sprague-Dawley rats; cited from earlier work
E. coli ATCC 25922 = assay: One-compartment in vitro infection (chemostat) model, E. coli ATCC 25922; assay type: cell-based, Escherichia coli
K. pneumoniae 19701 = assay: One-compartment in vitro infection (chemostat) model, K. pneumoniae 19701; assay type: cell-based, Klebsiella pneumoniae; details: for Average Log10 CFU/mL (+/− Range of Data), 5 × Ceftibuten + Avibactam at 4 mg/L MIC: Ceftibuten 400 mg q8h
E. cloacae 4184 = assay: One-compartment in vitro infection (chemostat) model, E. cloacae 4184; assay type: cell-based, Enterobacter cloacae; details: for Average Log10 CFU/mL (+/− Range of Data), 5 × Ceftibuten + Avibactam at 4 mg/L MIC: Ceftibuten 400 mg q8h
E. coli 136-4643 = assay: One-compartment in vitro infection (chemostat) model, E. coli 136-4643; assay type: cell-based, Escherichia coli; details: E. coli 4643; for Average Log10 CFU/mL (+/− Range of Data), 5 × Ceftibuten + Avibactam at 4 mg/L MIC: Ceftibuten 400 mg q8h
[3] = test system: ESBL-positive isolates (n = 28); assay type: cell-based, Enterobacteriaceae; details: ESBL n = 28; avibactam or clavulanic acid fixed at 4 μg/mL in combinations
[4] = test system: KPC-positive isolates (n = 23); assay type: cell-based, Enterobacteriaceae; details: KPC n = 23; avibactam or clavulanic acid fixed at 4 μg/mL in combinations
[5] = test system: pAmpC (PlasAmpC) isolates (n = 20); assay type: cell-based, Enterobacteriaceae; details: pAmpC n = 20; avibactam or clavulanic acid fixed at 4 μg/mL in combinations
314 Enterobacteriaceae = assay type: cell-based; details: all isolates combined; avibactam at a fixed concentration of 4 μg/mL
[6] = test system: ESBL-, KPC-, and OXA-positive isolates; assay type: cell-based, Enterobacteriaceae; details: avibactam 4 μg/mL
[7] = MIC determined using 4 mg/L of avibactam
[8] = MIC determined using 8 mg/L of avibactam
[9] = MIC determined using a 1:1 ratio of ceftibuten:avibactam
[10] = ceftibuten 200 mg q8h monotherapy
[11] = ceftibuten 400 mg q8h monotherapy

For NC(=O)[C@@H]1CC[C@@H]2CN1C(=O)N2OS(=O)(=O)O [avibactam, [2S,5R]-2-carbamoyl-7-oxo-1,6-diazabicyclo[3.2.1]octan-6-yl hydrogen sulfate], which “Avibactam free-drug plasma % T > Concentration threshold value, target 1-log” value ([1]; Ct 0.5 mg/L of avibactam) is on record?
The value was 97.6%.

What about the “Avibactam free-drug plasma % T > Concentration threshold value, target 2-log” value ([1]; Ct 0.5 mg/L of avibactam) of the same compound?
Its value is 98.2%.

What about the “Avibactam free-drug plasma % T > Concentration threshold value, target Stasis” value ([1]; Ct 0.5 mg/L of avibactam) of the same compound?
The value was 96.9%.

And the “Avibactam free-drug plasma % T > Concentration threshold value, target 1-log” value ([1]; Ct 1 mg/L of avibactam)?
The value was 85.2%.

And the “Avibactam free-drug plasma % T > Concentration threshold value, target 2-log” value ([1]; Ct 1 mg/L of avibactam)?
The value was 93.6%.

And the “Avibactam free-drug plasma % T > Concentration threshold value, target Stasis” value ([1]; Ct 1 mg/L of avibactam)?
Its value is 76.0%.

What about the “Avibactam free-drug plasma % T > MIC value, target 1-log” value [1, 7] of the same compound?
Its value is 58.0%.

And the “Avibactam free-drug plasma % T > MIC value, target 2-log” value [1, 7]?
Its value is 66.3%.

What about the “Avibactam free-drug plasma % T > MIC value, target Stasis” value [1, 7] of the same compound?
The value was 53.2%.

What about the “Avibactam free-drug plasma AUC:MIC value, target 1-log” value [1, 7] of the same compound?
The value was 30.8.

What about the “Avibactam free-drug plasma AUC:MIC value, target 2-log” value [1, 7] of the same compound?
The value was 34.2.

What about the “Avibactam free-drug plasma AUC:MIC value, target Stasis” value [1, 7] of the same compound?
Its value is 28.7.

And the “Avibactam free-drug plasma % T > MIC value, target 1-log” value [1, 8]?
Its value is 79.4%.

What about the “Avibactam free-drug plasma % T > MIC value, target 2-log” value [1, 8] of the same compound?
The value was 80.4%.

What about the “Avibactam free-drug plasma % T > MIC value, target Stasis” value [1, 8] of the same compound?
The value was 78.7%.

And the “Avibactam free-drug plasma AUC:MIC value, target 1-log” value [1, 8]?
Its value is 67.0.

What about the “Avibactam free-drug plasma AUC:MIC value, target 2-log” value [1, 8] of the same compound?
The value was 128.

And the “Avibactam free-drug plasma AUC:MIC value, target Stasis” value [1, 8]?
The value was 38.0.

And the “Avibactam free-drug plasma % T > MIC value, target 1-log” value [1, 9]?
The value was 11.1%.

What about the “Avibactam free-drug plasma % T > MIC value, target 2-log” value [1, 9] of the same compound?
Its value is 22.7%.

What about the “Avibactam free-drug plasma % T > MIC value, target Stasis” value [1, 9] of the same compound?
Its value is 6.8%.

What about the “Avibactam free-drug plasma AUC:MIC value, target 1-log” value [1, 9] of the same compound?
Its value is 15.4.

What about the “Avibactam free-drug plasma AUC:MIC value, target 2-log” value [1, 9] of the same compound?
The value was 17.1.

And the “Avibactam free-drug plasma AUC:MIC value, target Stasis” value [1, 9]?
The value was 14.4.

What about the “avibactam oral bioavailability (% F)” value [2] of the same compound?
The value was 1.2 % F.

Which results are given for Nc1nc(/C(=C/CC(=O)O)C(=O)N[C@@H]2C(=O)N3C(C(=O)O)=CCS[C@H]23)cs1 [ceftibuten, (6R,7R)-7-((Z)-2-(2-amino-4-thiazolyl)-4-carboxycrotonamido)-8-oxo-5-thia-1-azabicyclo(4.2.0)oct-2-ene-2-carboxylic acid]?
Reduction (bacterial burden) (E. coli ATCC 25922; Ceftibuten 267 mg TID, Avibactam 0 mg TID): 1-log; ceftibuten % T>MIC required to achieve net bacterial stasis (E. coli ATCC 25922; administered every 8 hours): approximately 45%; bacterial burden response at 24 hours (E. coli ATCC 25922; ceftibuten 3.75 mg to 75 mg q8h): net bacterial stasis; bacterial burden response at 24 hours (E. coli ATCC 25922; ceftibuten 12.5 mg q8h): treatment failure; bacterial burden response at 24 hours (E. coli ATCC 25922; ceftibuten 100 mg and 267 mg q8h): reductions in bacterial burden; Average Log10 CFU/mL (+/− Range of Data), 5 × Ceftibuten + Avibactam at 4 mg/L MIC (K. pneumoniae 19701; 0 h): 0 (0) Log10 CFU/mL; Average Log10 CFU/mL (+/− Range of Data), 5 × Ceftibuten + Avibactam at 4 mg/L MIC (K. pneumoniae 19701; 24 h): 1.67 (1.17) Log10 CFU/mL; bacterial burden response over 24 hours (K. pneumoniae 19701; [10]): no activity; bacterial burden response over 24 hours (K. pneumoniae 19701; [11]): did not reduce the bacterial burden; Average Log10 CFU/mL (+/− Range of Data), 5 × Ceftibuten + Avibactam at 4 mg/L MIC (E. cloacae 4184; 0 h): 0.99 (0.31) Log10 CFU/mL; Average Log10 CFU/mL (+/− Range of Data), 5 × Ceftibuten + Avibactam at 4 mg/L MIC (E. cloacae 4184; 24 h): 1.68 (0.20) Log10 CFU/mL; bacterial burden response over 24 hours (E. cloacae 4184; [10]): no activity; bacterial burden response over 24 hours (E. cloacae 4184; [11]): did not reduce the bacterial burden; Average Log10 CFU/mL (+/− Range of Data), 5 × Ceftibuten + Avibactam at 4 mg/L MIC (E. coli 136-4643; 0 h): 0 (0) Log10 CFU/mL; Average Log10 CFU/mL (+/− Range of Data), 5 × Ceftibuten + Avibactam at 4 mg/L MIC (E. coli 136-4643; 24 h): 0 (0) Log10 CFU/mL; bacterial burden response over 24 hours (E. coli 136-4643; ceftibuten 400 mg q8h monotherapy, first 4 hours, regrowth matching control by 12 hours): slight initial reduction in bacterial burden; Estimated MIC90 [3]: >32 µg/mL; Estimated MIC90 [4]: >32 µg/mL; Estimated MIC90 [5]: >32 µg/mL; MIC90 with addition of avibactam (314 Enterobacteriaceae): 0.5 µg/mL; reduction of MIC90 values by addition of avibactam [6]: at least five doubling dilutions
